Among the data in US20070185153A1 (priority 2005, published 2007) are MIC values, retold here.

Where a name gives a salt, the structure may show the parent alone.

In one assay the test system is panel of Gram-positive organisms and panel of Gram-negative organisms. The assay is described as follows: organism not typed. The format is cell-based. The conditions noted are these: read-out: MIC (minimum inhibitory concentration).
As for `O=c1[nH]c2ccccc2nc1CNC1CCN(C[C@]2(O)Cn3c(=O)ccc4ncc(F)c2c43)CC1` [Example 38], the MIC was ≤ 4 µg/mL.

On to `O=c1c(Cl)cc2ncc(F)c3c2n1CC3(O)CN1CCC(NCc2cc3c(cn2)OCCO3)CC1` (racemic) [Example 24, (4R/S)-8-Chloro-4-({4-[(2,3-dihydro[1,4]dioxino[2,3-c]pyridin-7-ylmethyl)amino]-1-piperidinyl}methyl)-3-fluoro-4-hydroxy-4,5-dihydro-7H-pyrrolo[3,2,1-de]-1,5-naphthyridin-7-one dihydrochloride], for which the MIC was ≤ 4 µg/mL. In the case of `COc1cnc2ccc(=O)n3c2c1[C@](O)(CN1CCC(NCc2cc4c(cn2)OCCO4)CC1)C3` [Example 65], the MIC is ≤ 8 µg/mL. In the case of `CC(C)n1nnc2cc(CNC3CCN(C[C@]4(O)Cn5c(=O)ccc6ncc(F)c4c65)CC3)ccc21` [Example 47], the MIC is ≤ 8 µg/mL. Still for that read-out and setting: with `O=c1[nH]c(CNC2CCN(C[C@]3(O)Cn4c(=O)ccc5ncc(F)c3c54)CC2)nc2ccccc12` [Example 39] the figure was ≤ 4 µg/mL.

The same assay, now with this note: read-out: MIC values.
`COc1cnc2ccc(=O)n3c2c1[C@](O)(CN1CCC(NCc2cc4c(nn2)OCCO4)CC1)C3` [Example 66]: the MIC is ≥ 16 µg/mL.
